Measurements as given in patent US8513275B2 (Salix Pharmaceuticals, Ltd, priority 2010, dated 2013).
“Also recorded” adds a separate entry of the source. Like-named read-outs stand apart in the source and are kept apart here. Marks after values point to notes of the source that are not given here.

Tests used:
[1] = 1000 psi, 1 min.
[2] = Properties of the Rifaximin:piperazine cocrystals (summary, Table 12); conditions: summary column of Table 12
[3] = Relative humidity stressing at ambient temperature, XRPD of stressed solid; format: physicochemical
[4] = VS w/ACN
Description: Subsequent characterization of cocrystal 2 was conducted quickly after isolating vapor stressed samples.
The 20-mL vial was capped and left at ambient conditions for vapor stress.

[5] = Dynamic vapor sorption (moisture sorption, moisture balance) with post-sorption XRPD; format: physicochemical; conditions: for post-moisture sorption (post-MB / post-DVS) XRPD result: solid after DVS cycle
Description: Automated vapor sorption (VS) data were collected on a VTI SGA-100 Vapor Sorption Analyzer. NaCl and PVP were used as calibration standards. Samples were not dried prior to analysis. […] The equilibrium criterion used for analysis was less than 0.0100% weight change in 5 minutes with a maximum equilibration time of 3 hours. Data were not corrected for the initial moisture content of the samples.
Automated dynamic vapor sorption (DVS) data were collected on a VTI SGA-100 Vapor Sorption Analyzer. NaCl and PVP were used as calibration standards. Samples were not dried prior to analysis. […] The equilibrium criterion used for analysis was less than 0.0100% weight change in 5 minutes with a maximum equilibration time of 3 hours.

[6] = water slurry, 5 minutes, 3 hours and 7 hours
Description: In order to be able to measure the aqueous solubility (equilibrium or kinetic) of a cocrystal, it should remain intact upon exposure to aqueous conditions for some duration. If it dissociates or changes forms quickly upon contact with water, intrinsic dissolution may be introduced as an alternative to solubility, in which dissolution of a pellet of the cocrystal is measured; however, the cocrystal must not change form upon compression.

With `C1CNCCN1.COC1C=COC2(C)Oc3c(C)c(O)c4c(O)c(c5c(nc6cc(C)ccn65)c4c3C2=O)NC(=O)C(C)=CC=CC(C)C(O)C(C)C(O)C(C)C(OC(C)=O)C1C.COC1C=COC2(C)Oc3c(C)c(O)c4c(O)c(c5c(nc6cc(C)ccn65)c4c3C2=O)NC(=O)C(C)=CC=CC(C)C(O)C(C)C(O)C(C)C(OC(C)=O)C1C` (stereo not shown) [cocrystal 1, rifaximin:piperazine cocrystal 1] the “XRPD result after compression” value [1] was “additional peaks at approximately 5 and 17°2θ were observed by XRPD, and the material was low crystalline”, the “Properties (hygroscopicity, stability)” value [2] was “likely falls apart upon heating; also recorded: hygroscopic” and the “XRPD result after RH stress” value ([3]; ~75% RH, 1 week) was “broad peaks, similar to cocrystal 1+ peak at ˜5°2θ”. The “XRPD result after RH stress” value ([3]; ~75% RH, 1 week, listed as Cocrystal 1) was “broad peaks, similar to cocrystal 1 with an additional peak at approximately 5°2θ”, the “XRPD result after RH stress” value ([3]; ~75% RH, 2 weeks) was “broad peaks, similar to cocrystal 1+ peak at ˜5°2θ” and the “XRPD result after RH stress” value ([3]; ~75% RH, 2 weeks, listed as Cocrystal 1) was “broad peaks, similar to cocrystal 1 with an additional peak at approximately 5°2θ”. For the same compound, the “XRPD result after RH stress” value ([3]; ~75% RH, 3 days) was “broad peaks, similar to cocrystal 1+ peak at ˜5°2θ”, the “XRPD result after RH stress” value ([3]; ~75% RH, 3 days, listed as Cocrystal 1) was “broad peaks, similar to cocrystal 1 with an additional peak at approximately 5°2θ” and the “XRPD result after RH stress” value ([3]; ~97% RH, 1 week, listed as Cocrystal 1) was “Conversion to Rifaximin Form β-1”. The “XRPD result after RH stress” value ([3]; ~97% RH, 1 week, listed as Rifaximin:Piperazine Cocrystal 1) was “API, Form β-1”, the “XRPD result after RH stress” value ([3]; ~97% RH, 3 days, listed as Cocrystal 1) was “conversion to Rifaximin Form β-1” and the “XRPD result after RH stress” value ([3]; ~97% RH, 3 days, listed as Rifaximin:Piperazine Cocrystal 1) was “API, Form β-1”. For the same compound, the “XRPD result after vapor stress with ACN” value ([4]; 7 days) was “conversion to cocrystal 2”, the “XRPD result after vapor stress with ACN” value ([4]; 7 days, listed as Cocrystal 1) was “Cocrystal 2 resulted by XRPD” and the “XRPD result after vapor stress with ACN” value ([4]; 7 days, listed as Rifaximin:Piperazine Cocrystal 1) was “cocrystal 2^c”. For the same compound, the “XRPD result after vapor stress with ACN” value ([4]; 24 days, sample stood capped at ambient approx. 5-6 hours before XRPD) was “gave cocrystal 1 by XRPD”, the “XRPD result after vapor stress with ACN” value ([4]; 24 days, sample stood capped at ambient approx. 5-6 hours before XRPD, listed as Rifaximin:Piperazine Cocrystal 1) was “cocrystal 1^b” and the “hygroscopicity by DVS” value [5] was “quite hygroscopic”. The “weight loss from 95 to 5% RH” value ([5]; desorption 95-5% RH, listed as sample 4) was 11.47% weight loss from 95-5% RH, the “weight loss upon equilibration at 5% RH” value ([5]; initial equilibration at 5% RH) was 3.54% weight loss at 5% RH and the “post-moisture sorption (post-MB / post-DVS) XRPD result” value [5] was “broad peaks, similar to cocrystal 1 with additional peaks at approximately 5 and 17°2θ; also recorded: broad peaks, similar to cocrystal 1 plus peaks at approximately 5 and 17°2θ”. For the same compound, the “post-moisture sorption (post-MB / post-DVS) XRPD result” value ([5]; listed as Cocrystal 1) was “conversion to a material similar to cocrystal 1 plus two additional peaks”, the “weight gain from 5 to 95% RH” value ([5]; sorption 5-95% RH, listed as sample 4) was 10.78% weight gain from 5-95% RH and the “XRPD result after slurrying in water” value ([6]; listed as Rifaximin:Piperazine Cocrystal 1) was “API, Form β-1”. The “XRPD result after slurrying in water” value ([6]; listed as Rifaximin:piperazine cocrystal 1) was “conversion to Rifaximin Form β-1”.
